The results in this text go back to the kinase profiling compilation of Christmann-Franck et al. (2016).

The structures appear in SMILES notation.

Sequence of NEK7 (human) (Q8TDX7 whole entry, looked up): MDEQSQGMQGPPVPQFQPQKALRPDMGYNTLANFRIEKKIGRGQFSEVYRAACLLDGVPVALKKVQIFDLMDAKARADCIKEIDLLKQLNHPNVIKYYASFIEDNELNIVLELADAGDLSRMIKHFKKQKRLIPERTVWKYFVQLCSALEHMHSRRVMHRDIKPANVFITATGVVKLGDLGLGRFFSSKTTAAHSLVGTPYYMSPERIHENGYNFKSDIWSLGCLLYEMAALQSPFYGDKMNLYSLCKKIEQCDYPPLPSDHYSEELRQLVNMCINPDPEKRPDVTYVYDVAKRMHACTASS
Sequence of FYN (human) (P06241 whole entry, looked up): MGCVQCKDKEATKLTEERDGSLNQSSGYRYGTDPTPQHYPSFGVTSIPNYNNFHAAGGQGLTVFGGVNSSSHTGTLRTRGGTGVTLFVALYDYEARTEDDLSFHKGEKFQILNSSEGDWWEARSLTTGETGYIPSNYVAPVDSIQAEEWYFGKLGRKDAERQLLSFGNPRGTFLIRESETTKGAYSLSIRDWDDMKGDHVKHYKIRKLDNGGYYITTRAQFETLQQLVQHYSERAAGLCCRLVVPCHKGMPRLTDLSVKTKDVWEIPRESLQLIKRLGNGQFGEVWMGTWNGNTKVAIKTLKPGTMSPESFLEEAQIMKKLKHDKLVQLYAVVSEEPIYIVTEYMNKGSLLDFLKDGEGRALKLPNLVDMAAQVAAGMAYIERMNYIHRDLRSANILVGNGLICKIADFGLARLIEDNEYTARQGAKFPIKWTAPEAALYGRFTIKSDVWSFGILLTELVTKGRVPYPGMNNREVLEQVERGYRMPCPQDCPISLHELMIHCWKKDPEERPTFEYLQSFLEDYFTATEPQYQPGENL

In one assay the target is STK4 (human) (UniProt Q13043). Put plainly: radiometric filter-binding kinase assay, Kinase HotSpot. The note with it: compound 0.5 µM; ATP 10 µM.
Sequence of STK4 (human) (Q13043 whole entry, looked up): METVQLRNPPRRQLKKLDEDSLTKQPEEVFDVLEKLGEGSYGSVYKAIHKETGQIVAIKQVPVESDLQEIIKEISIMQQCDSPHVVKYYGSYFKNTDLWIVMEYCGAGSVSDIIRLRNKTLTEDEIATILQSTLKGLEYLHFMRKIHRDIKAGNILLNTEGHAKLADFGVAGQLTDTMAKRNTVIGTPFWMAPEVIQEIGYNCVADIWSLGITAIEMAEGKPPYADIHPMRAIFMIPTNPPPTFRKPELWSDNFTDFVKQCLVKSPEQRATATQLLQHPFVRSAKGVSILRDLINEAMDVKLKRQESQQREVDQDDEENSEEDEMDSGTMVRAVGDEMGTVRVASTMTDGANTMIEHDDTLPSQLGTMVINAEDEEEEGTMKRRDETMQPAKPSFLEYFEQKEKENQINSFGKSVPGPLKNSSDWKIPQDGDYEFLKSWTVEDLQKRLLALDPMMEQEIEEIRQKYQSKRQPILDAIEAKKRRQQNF
In the case of `CNc1cc2c(Nc3cccc(Br)c3)ncnc2cn1`, the residual activity – broadly, the signal under treatment as a percentage of the control signal – came to 95.4%.
`O=C1Nc2ccc(Cl)cc2/C1=C/c1cc(Cl)c(O)c(Cl)c1`: the residual activity is 32.5%.
Same read-out and setting: to `Oc1cccc(-c2nc(N3CCOCC3)c3oc4ncccc4c3n2)c1` belongs 93.3%.

A further assay concerns the target MARK1 (human) (UniProt Q9P0L2). The description is as above. The note with it: compound 0.5 µM; ATP 10 µM.
As to `CNc1cc2c(Nc3cccc(Br)c3)ncnc2cn1`, the residual activity is 96.1%.
Consider `O=C1Nc2ccc(Cl)cc2/C1=C/c1cc(Cl)c(O)c(Cl)c1`, for which the residual activity turned out to be 89.5%.
On the same count and under the same terms, next, `Oc1cccc(-c2nc(N3CCOCC3)c3oc4ncccc4c3n2)c1`: 97.6%.

In another assay the target is AKT2 (human) (UniProt P31751). The assay is described as above. The conditions noted are these: compound 0.5 µM; ATP 10 µM.
`CNc1cc2c(Nc3cccc(Br)c3)ncnc2cn1`: the residual activity worked out at 99.6%.
On the same count and under the same terms, to `O=C1Nc2ccc(Cl)cc2/C1=C/c1cc(Cl)c(O)c(Cl)c1` belongs 93.9%; to `Oc1cccc(-c2nc(N3CCOCC3)c3oc4ncccc4c3n2)c1`, 99.1%.

Another assay has as its target EPHA5 (human) (UniProt P54756). The description is as above. The conditions noted are these: compound 0.5 µM; ATP 10 µM.
On to `CNc1cc2c(Nc3cccc(Br)c3)ncnc2cn1`, for which the residual activity stood at 106%.
The same measure, in the same setting: to `O=C1Nc2ccc(Cl)cc2/C1=C/c1cc(Cl)c(O)c(Cl)c1` belongs 99.4%; to `Oc1cccc(-c2nc(N3CCOCC3)c3oc4ncccc4c3n2)c1`, 102%.

The target of a further assay is ROCK1 (human) (UniProt Q13464). The description is as above. The note with it: compound 0.5 µM; ATP 10 µM.
With `CNc1cc2c(Nc3cccc(Br)c3)ncnc2cn1`, the residual activity was 98.8%.
In the case of `O=C1Nc2ccc(Cl)cc2/C1=C/c1cc(Cl)c(O)c(Cl)c1`, the residual activity amounted to 93.2%.
For `Oc1cccc(-c2nc(N3CCOCC3)c3oc4ncccc4c3n2)c1`, the residual activity came to 94.9%.

For a further assay, the target named is MAPKAPK5 (human) (UniProt Q8IW41). The description is as above. The note with it: compound 0.5 µM; ATP 10 µM.
`CNc1cc2c(Nc3cccc(Br)c3)ncnc2cn1`: the residual activity was 99.3%.
On to `O=C1Nc2ccc(Cl)cc2/C1=C/c1cc(Cl)c(O)c(Cl)c1`, for which the residual activity is 92.4%.
The same measure, in the same setting: next, `Oc1cccc(-c2nc(N3CCOCC3)c3oc4ncccc4c3n2)c1`: 85.7%.

For a further assay, the target named is EPHA7 (human) (UniProt Q15375). Described as above. The conditions noted are these: compound 0.5 µM; ATP 10 µM.
Sequence of EPHA7 (human) (Q15375 whole entry, looked up): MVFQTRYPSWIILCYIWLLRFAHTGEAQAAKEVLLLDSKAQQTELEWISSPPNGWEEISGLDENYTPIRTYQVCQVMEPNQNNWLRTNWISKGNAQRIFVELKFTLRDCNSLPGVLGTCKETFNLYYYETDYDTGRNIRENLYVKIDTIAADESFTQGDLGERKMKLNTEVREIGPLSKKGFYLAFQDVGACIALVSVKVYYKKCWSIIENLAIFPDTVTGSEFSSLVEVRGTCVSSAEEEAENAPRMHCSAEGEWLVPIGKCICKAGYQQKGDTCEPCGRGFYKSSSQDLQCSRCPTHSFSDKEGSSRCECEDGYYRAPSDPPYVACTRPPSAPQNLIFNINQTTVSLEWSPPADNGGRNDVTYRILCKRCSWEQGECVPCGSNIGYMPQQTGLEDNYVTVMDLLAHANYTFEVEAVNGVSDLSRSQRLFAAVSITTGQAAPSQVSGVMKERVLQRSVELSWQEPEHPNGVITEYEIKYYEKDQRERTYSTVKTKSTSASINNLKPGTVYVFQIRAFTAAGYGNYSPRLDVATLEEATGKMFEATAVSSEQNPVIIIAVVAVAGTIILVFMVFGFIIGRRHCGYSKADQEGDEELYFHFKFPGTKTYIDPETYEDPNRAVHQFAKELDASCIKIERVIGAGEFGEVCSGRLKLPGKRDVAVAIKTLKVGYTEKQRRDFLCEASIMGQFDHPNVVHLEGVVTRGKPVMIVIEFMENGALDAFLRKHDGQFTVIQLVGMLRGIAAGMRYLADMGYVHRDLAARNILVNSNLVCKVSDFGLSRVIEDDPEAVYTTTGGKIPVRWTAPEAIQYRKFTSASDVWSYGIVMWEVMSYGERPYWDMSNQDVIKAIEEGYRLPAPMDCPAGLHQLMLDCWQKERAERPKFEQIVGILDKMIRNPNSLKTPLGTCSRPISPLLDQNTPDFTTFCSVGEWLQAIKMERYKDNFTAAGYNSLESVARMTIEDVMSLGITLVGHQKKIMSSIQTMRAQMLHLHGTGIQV
As to `CNc1cc2c(Nc3cccc(Br)c3)ncnc2cn1`, the residual activity was found to be 94.6%.
On the same count and under the same terms, next, `O=C1Nc2ccc(Cl)cc2/C1=C/c1cc(Cl)c(O)c(Cl)c1`: 97.5%.
As for `Oc1cccc(-c2nc(N3CCOCC3)c3oc4ncccc4c3n2)c1`, the residual activity stood at 93.9%.

Another assay concerns the target GSK3A (human) (UniProt P49840). The assay is described as above. The conditions noted are these: compound 0.5 µM; ATP 10 µM.
As to `CNc1cc2c(Nc3cccc(Br)c3)ncnc2cn1`, the residual activity worked out at 95.9%.
Still for that read-out and setting: to `O=C1Nc2ccc(Cl)cc2/C1=C/c1cc(Cl)c(O)c(Cl)c1` belongs 76.1%; to `Oc1cccc(-c2nc(N3CCOCC3)c3oc4ncccc4c3n2)c1`, 90.2%.

For the next assay, the target named is PDGFRA (human) (UniProt P16234). The assay is described as above. The note with it: compound 0.5 µM; ATP 10 µM.
Regarding `CNc1cc2c(Nc3cccc(Br)c3)ncnc2cn1`, the residual activity turned out to be 99%.
As for `O=C1Nc2ccc(Cl)cc2/C1=C/c1cc(Cl)c(O)c(Cl)c1`, the residual activity was 70.3%.
On the same count and under the same terms, to `Oc1cccc(-c2nc(N3CCOCC3)c3oc4ncccc4c3n2)c1` belongs 99.4%.

A further assay has as its target FYN (human) (UniProt P06241). The description is as above. The note with it: compound 0.5 µM; ATP 10 µM.
Turning to `CNc1cc2c(Nc3cccc(Br)c3)ncnc2cn1`, the residual activity was found to be 91.7%.
Regarding `O=C1Nc2ccc(Cl)cc2/C1=C/c1cc(Cl)c(O)c(Cl)c1`, the residual activity was found to be 73%.
In the case of `Oc1cccc(-c2nc(N3CCOCC3)c3oc4ncccc4c3n2)c1`, the residual activity was 91.7%.

Another assay has as its target STK39 (human) (UniProt Q9UEW8). The description is as above. The note with it: compound 0.5 µM; ATP 10 µM.
For the compound `CNc1cc2c(Nc3cccc(Br)c3)ncnc2cn1`, the residual activity was found to be 94%.
As for `O=C1Nc2ccc(Cl)cc2/C1=C/c1cc(Cl)c(O)c(Cl)c1`, the residual activity amounted to 97%.
As for `Oc1cccc(-c2nc(N3CCOCC3)c3oc4ncccc4c3n2)c1`, the residual activity amounted to 105%.

A further assay has as its target NEK7 (human) (UniProt Q8TDX7). Described as above. The note with it: compound 0.5 µM; ATP 10 µM.
`CNc1cc2c(Nc3cccc(Br)c3)ncnc2cn1`: the residual activity was 90.4%.
For `O=C1Nc2ccc(Cl)cc2/C1=C/c1cc(Cl)c(O)c(Cl)c1`, the residual activity came to 100%.
Same read-out and setting: to `Oc1cccc(-c2nc(N3CCOCC3)c3oc4ncccc4c3n2)c1` belongs 97.3%.

For another assay, the target named is FLT3 (human) (UniProt P36888). The assay is described as above. The conditions noted are these: compound 0.5 µM; ATP 10 µM.
With `CNc1cc2c(Nc3cccc(Br)c3)ncnc2cn1`, the residual activity was found to be 71.2%.
The same measure, in the same setting: to `O=C1Nc2ccc(Cl)cc2/C1=C/c1cc(Cl)c(O)c(Cl)c1` belongs 26.5%; to `Oc1cccc(-c2nc(N3CCOCC3)c3oc4ncccc4c3n2)c1`, 87.1%.

The target of a further assay is PDPK1 (human) (UniProt O15530). Described as above. The note with it: compound 0.5 µM; ATP 10 µM.
Sequence of PDPK1 (human) (O15530 whole entry, looked up): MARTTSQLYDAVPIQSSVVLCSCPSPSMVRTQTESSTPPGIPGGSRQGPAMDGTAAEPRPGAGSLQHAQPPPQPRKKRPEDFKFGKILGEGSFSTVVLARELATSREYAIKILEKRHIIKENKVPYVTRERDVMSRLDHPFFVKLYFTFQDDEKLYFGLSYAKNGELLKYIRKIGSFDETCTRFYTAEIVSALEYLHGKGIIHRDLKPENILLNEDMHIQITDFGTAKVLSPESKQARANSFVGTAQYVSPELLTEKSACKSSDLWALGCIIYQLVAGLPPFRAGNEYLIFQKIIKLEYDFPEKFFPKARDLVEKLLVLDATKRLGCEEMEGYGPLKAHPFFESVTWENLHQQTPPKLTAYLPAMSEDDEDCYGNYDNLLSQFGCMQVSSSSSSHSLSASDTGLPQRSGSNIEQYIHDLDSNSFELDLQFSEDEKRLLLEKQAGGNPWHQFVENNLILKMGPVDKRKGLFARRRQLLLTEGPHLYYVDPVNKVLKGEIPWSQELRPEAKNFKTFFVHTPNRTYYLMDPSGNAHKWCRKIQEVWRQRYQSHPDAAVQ
Take `CNc1cc2c(Nc3cccc(Br)c3)ncnc2cn1`: the residual activity was found to be 97.7%.
The same measure, in the same setting: to `O=C1Nc2ccc(Cl)cc2/C1=C/c1cc(Cl)c(O)c(Cl)c1` belongs 103%; to `Oc1cccc(-c2nc(N3CCOCC3)c3oc4ncccc4c3n2)c1`, 103%.

The target of a further assay is MUSK (human) (UniProt O15146). The assay is described as above. The note with it: compound 0.5 µM; ATP 10 µM.
Consider `CNc1cc2c(Nc3cccc(Br)c3)ncnc2cn1`, for which the residual activity turned out to be 81.3%.
In the case of `O=C1Nc2ccc(Cl)cc2/C1=C/c1cc(Cl)c(O)c(Cl)c1`, the residual activity stood at 65.5%.
For the compound `Oc1cccc(-c2nc(N3CCOCC3)c3oc4ncccc4c3n2)c1`, the residual activity was found to be 87.8%.

In a further assay the target is PAK3 (human) (UniProt O75914). Described as above. The note with it: compound 0.5 µM; ATP 10 µM.
Sequence of PAK3 (human) (O75914 whole entry, looked up): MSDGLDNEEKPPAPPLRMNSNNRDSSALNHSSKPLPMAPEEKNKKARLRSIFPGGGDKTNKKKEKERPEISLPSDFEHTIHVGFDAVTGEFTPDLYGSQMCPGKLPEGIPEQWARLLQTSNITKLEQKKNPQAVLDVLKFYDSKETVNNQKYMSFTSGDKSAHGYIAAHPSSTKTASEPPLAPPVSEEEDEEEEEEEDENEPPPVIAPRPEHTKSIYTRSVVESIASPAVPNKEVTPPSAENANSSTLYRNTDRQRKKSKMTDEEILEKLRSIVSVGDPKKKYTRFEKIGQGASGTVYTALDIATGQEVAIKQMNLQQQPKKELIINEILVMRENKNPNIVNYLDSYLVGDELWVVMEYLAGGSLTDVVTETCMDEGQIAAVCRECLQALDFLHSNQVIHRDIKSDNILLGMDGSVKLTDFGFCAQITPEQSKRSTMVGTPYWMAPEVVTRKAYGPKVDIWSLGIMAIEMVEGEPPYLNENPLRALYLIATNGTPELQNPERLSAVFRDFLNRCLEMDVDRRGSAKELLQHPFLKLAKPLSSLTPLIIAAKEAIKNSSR
As to `CNc1cc2c(Nc3cccc(Br)c3)ncnc2cn1`, the residual activity came to 98.8%.
Regarding `O=C1Nc2ccc(Cl)cc2/C1=C/c1cc(Cl)c(O)c(Cl)c1`, the residual activity was determined as 94.3%.
On the same count and under the same terms, to `Oc1cccc(-c2nc(N3CCOCC3)c3oc4ncccc4c3n2)c1` belongs 97.5%.

The target of the next assay is MST1R (human) (UniProt Q04912). The description is as above. The note with it: compound 0.5 µM; ATP 10 µM.
Regarding `CNc1cc2c(Nc3cccc(Br)c3)ncnc2cn1`, the residual activity was found to be 73.9%.
Same read-out and setting: next, `O=C1Nc2ccc(Cl)cc2/C1=C/c1cc(Cl)c(O)c(Cl)c1`: 94.8%; `Oc1cccc(-c2nc(N3CCOCC3)c3oc4ncccc4c3n2)c1`: 94.3%.

In a further assay the target is ADRBK1 (human) (UniProt P25098). The assay is described as above. The conditions noted are these: compound 0.5 µM; ATP 10 µM.
Sequence of ADRBK1 (human) (P25098 whole entry, looked up): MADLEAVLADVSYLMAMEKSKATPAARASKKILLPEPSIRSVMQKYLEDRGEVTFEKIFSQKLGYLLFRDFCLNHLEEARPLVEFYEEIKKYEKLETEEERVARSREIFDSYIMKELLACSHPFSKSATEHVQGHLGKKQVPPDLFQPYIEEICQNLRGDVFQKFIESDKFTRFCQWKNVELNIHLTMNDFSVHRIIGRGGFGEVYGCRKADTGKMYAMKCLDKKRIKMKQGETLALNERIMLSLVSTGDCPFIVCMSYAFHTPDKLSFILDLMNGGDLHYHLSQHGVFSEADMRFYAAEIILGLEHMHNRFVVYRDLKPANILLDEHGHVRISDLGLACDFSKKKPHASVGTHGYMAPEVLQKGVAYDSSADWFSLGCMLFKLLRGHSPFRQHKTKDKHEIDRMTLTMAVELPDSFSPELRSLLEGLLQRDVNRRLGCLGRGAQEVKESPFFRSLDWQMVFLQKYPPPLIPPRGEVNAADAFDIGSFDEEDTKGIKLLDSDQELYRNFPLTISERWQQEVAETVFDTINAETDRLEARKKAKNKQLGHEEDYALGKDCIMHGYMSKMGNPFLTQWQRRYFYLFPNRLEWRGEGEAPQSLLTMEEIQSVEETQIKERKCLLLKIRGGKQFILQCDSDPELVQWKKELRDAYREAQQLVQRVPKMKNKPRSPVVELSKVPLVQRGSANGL
Consider `CNc1cc2c(Nc3cccc(Br)c3)ncnc2cn1`, for which the residual activity was 97%.
Consider `O=C1Nc2ccc(Cl)cc2/C1=C/c1cc(Cl)c(O)c(Cl)c1`, for which the residual activity is 93.4%.
On the same count and under the same terms, next, `Oc1cccc(-c2nc(N3CCOCC3)c3oc4ncccc4c3n2)c1`: 107%.

The target in another assay is MAP3K2 (human) (UniProt Q9Y2U5). The description is as above. The conditions noted are these: compound 0.5 µM; ATP 10 µM.
Sequence of MAP3K2 (human) (Q9Y2U5 whole entry, looked up): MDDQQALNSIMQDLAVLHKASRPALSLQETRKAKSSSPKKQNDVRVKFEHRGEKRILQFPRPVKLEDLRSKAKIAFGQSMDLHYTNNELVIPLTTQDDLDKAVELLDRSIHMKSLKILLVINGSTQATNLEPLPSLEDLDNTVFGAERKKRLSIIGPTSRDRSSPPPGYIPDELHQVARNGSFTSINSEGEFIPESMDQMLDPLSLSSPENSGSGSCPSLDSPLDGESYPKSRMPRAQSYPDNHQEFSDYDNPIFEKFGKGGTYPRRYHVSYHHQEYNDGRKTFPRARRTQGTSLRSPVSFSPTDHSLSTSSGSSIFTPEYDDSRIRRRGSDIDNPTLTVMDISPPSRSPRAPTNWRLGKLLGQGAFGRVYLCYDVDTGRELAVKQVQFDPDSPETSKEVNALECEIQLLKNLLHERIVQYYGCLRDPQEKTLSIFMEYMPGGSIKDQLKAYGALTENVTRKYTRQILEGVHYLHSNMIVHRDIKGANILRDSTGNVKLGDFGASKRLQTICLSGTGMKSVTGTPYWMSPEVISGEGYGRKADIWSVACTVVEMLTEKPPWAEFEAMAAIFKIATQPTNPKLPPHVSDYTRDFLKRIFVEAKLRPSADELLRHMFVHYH
For `CNc1cc2c(Nc3cccc(Br)c3)ncnc2cn1`, the residual activity was 74.9%.
Still for that read-out and setting: next, `O=C1Nc2ccc(Cl)cc2/C1=C/c1cc(Cl)c(O)c(Cl)c1`: 95.7%; `Oc1cccc(-c2nc(N3CCOCC3)c3oc4ncccc4c3n2)c1`: 103%.

Another assay addresses CSF1R (human) (UniProt P07333). Described as above. The note with it: compound 0.5 µM; ATP 10 µM.
Consider `CNc1cc2c(Nc3cccc(Br)c3)ncnc2cn1`, for which the residual activity came out at 100%.
Still for that read-out and setting: to `O=C1Nc2ccc(Cl)cc2/C1=C/c1cc(Cl)c(O)c(Cl)c1` belongs 77.9%.
On to `Oc1cccc(-c2nc(N3CCOCC3)c3oc4ncccc4c3n2)c1`, for which the residual activity was found to be 108%.

The target in the next assay is HIPK3 (human) (UniProt Q9H422). Described as above. The conditions noted are these: compound 0.5 µM; ATP 10 µM.
Regarding `CNc1cc2c(Nc3cccc(Br)c3)ncnc2cn1`, the residual activity came to 94.1%.
Still for that read-out and setting: to `O=C1Nc2ccc(Cl)cc2/C1=C/c1cc(Cl)c(O)c(Cl)c1` belongs 91.5%.
In the case of `Oc1cccc(-c2nc(N3CCOCC3)c3oc4ncccc4c3n2)c1`, the residual activity stood at 93.8%.
